Assay results published in patent US20080227728A1, “Therapeutic Agent for the Treatment of a Condition Associated with Peripheral Vascular Disease” (LABORATORIOS BELMAC, S.A., priority 2005, published 2008).

System: individuals showing problems related to venous insufficiency
Assay: Administration of oleuropein to patients suffering from venous insufficiency (general statements)
Conditions: compared with other drugs known for peripheral vascular disease symptoms

Q: With `C/C=C1/[C@H](O[C@@H]2O[C@H](CO)[C@@H](O)[C@H](O)[C@H]2O)OC=C(C(=O)OC)[C@H]1CC(=O)OCCc1ccc(O)c(O)c1` [oleuropein] as the compound, how does the side effects read?
A: do not show significant side effects
